# From US6465447B1, “Substance having steroid-like structure, process for the production thereof and antitumor agents containing the same” (Hisamitsu Pharmaceuticals Co., Inc., priority 1998, dated 2002)
# Legend:
# [1] = tested on: HeLa cells; assay: DNA cleavage examined against HeLa cells (chromatin aggregation, agarose gel electrophoresis); format: cell-based, human; conditions: conclusion from FIGS. 7-9
# Experimental: HeLa cells were prepared, adjusted to a cell density of 1×10^6 cells/ml in a φ10 cm culture dish and grown, into which 200 μl of the active fraction solution was dropped. Cells were harvested each 50 μl after 24, 48, and 72 hrs, and incubated in 400 μl of culture solution (containing Tris-EDTA, SDS and Proteinase K) in a 5% CO2 atmosphere at 37° C. overnight. NaCl was added to the cells and decomposed proteins were centrifuged; and the supernatant was precipitated in ethanol.
# The precipitate was suspended in Tris-EDTA buffer containing RnaseA. After 2 hrs, it was loaded onto agarose gel. After staining with ethidium bromide, it was electrophoresed and visualized under UV irradiation.
# [2] = tested on: HeLa cells; assay: Tumor cell proliferation inhibitory activity, Alarmer Blue staining, HeLa cells; format: cell-based, human; conditions: conclusion from FIGS. 4-6 (Vero, HeLa, fibroblasts)
# Experimental: Here, Vero was […] derived from the kidney of a grivet, and HeLa was a tumor cell line derived from human cervix.
# These cells were grown in FCS-MRM medium. The respective cells were trypsinized and washed with a FCS-free RPMI culture medium three times. The cell density was adjusted to 50,000 cells/ml prior to the test. Each 200 μl of cell suspension was dropped into a 96-well plain-bottom plate.
# After one day, the culture medium was aspirated; and 200 μl of an active component solution was dropped into test wells, and 200 μl of DMSO dropped into control wells. The plate was incubated in a 5% CO2 atmosphere at 37° C. for 3 days. Ten μl of Alarmer Blue (staining agent) was added to each well, and incubation continued for additional 3 hrs. The tumor cell proliferation inhibitory activity was determined spectrophotometrically (570 and 600 nm) according to the following equation:
# Eq. Proliferation inhibitory activity=100%−[(absorbance of test well)/(absorbance of control well)×100%]
compound,measurement,setting,value
CC(=O)OC1CC2(C)C(C(C)/C=C/C(C)C(C)C)CCC2(C)C2CC(O)C3(O)CC(O)CC(=O)C3(C)C12 (centres unmarked) [compound (II)],induction of apoptosis in the tumor cells,[1],induces apotosis
same,proliferation inhibitory activity specific to tumor cells (overall conclusion),[2],remarkable proliferation inhibitory activity specific to tumor cells
